These results are taken from US5523308A, “Peptidyl heterocycles useful in the treatment of thrombin related disorders” (priority 1995, dated 1996).

One series concerns the target T1, human alpha-thrombin (Homo sapiens, UniProt P00734).
T1 construct: commercial human alpha-thrombin (American Diagnostica); purchased American Diagnostica
The series is described as follows: Thrombin-catalyzed hydrolysis of chromogenic substrate Spectozyme TH (in vitro enzyme assay). In kind it is biochemical. Particulars: 1 nM thrombin, 37° C., pH 7.4; for Ki: 5-100 μM Spectozyme TH, read-out: Thr Ki (listed in place of the IC50); for IC50: 50 μM Spectozyme TH, read-out: Thr IC50.

The target of another series is T2, Bovine type 1 trypsin (Bos taurus, UniProt P00760).
T2 construct: purchased Sigma
T2 sequence (P00760 24-246): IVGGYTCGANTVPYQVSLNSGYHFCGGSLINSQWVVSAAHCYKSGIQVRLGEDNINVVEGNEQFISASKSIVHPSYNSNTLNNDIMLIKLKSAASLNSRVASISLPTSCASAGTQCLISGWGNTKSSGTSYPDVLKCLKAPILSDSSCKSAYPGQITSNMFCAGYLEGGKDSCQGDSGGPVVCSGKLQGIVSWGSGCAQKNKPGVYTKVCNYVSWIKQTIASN
The experiment in a line: Trypsin-catalyzed hydrolysis of chromogenic substrate Spectrozyme TRY (in vitro enzyme assay). The format is biochemical. Particulars: 3.2 U/ml trypsin, 0.1-0.3 mM Spectrozyme TRY; for Ki: read-out: Trp Ki (listed in place of the IC50); for IC50: read-out: Trp IC50. On the procedure:
The compounds of the invention were tested for their ability to inhibit thrombin mediated hydrolysis. An in vitro enzyme assay was performed as well as an ex vivo assay. In addition, the compounds were tested in vitro for their ability to inhibit trypsin, as an indication of their selectivity.
Trypsin-catalyzed hydrolysis rates were measured using the same method as the thrombin procedure.
The compound numbers in the table correspond to the examples described hereinafter.

The conditions of series [1]: rat, in vivo, iv.
Description: An ex vivo assay was conducted to determine the duration of action of the compounds of Formula I. For this i.v. assay male rats (Long Evans, 350-500 g) were implanted with a teflon cannulae via the femoral artery while under anesthesia (pentobarbital i.p., 35 mg/kg). […] The animals were allowed to recover for at least 24 h after the surgical procedure.
The test compound was dispersed in water and delivered to the animal (0.25 mL) via the femoral vein. […] A plasma sample was obtained by centrifuging the blood at 10,000 rpm for 5 min. This sample is analyzed for thrombin inhibition using the chromogenic assay, described below.
Datum was collected over a 30 min period and the initial rate of substrate hydrolysis (V0 (mOD/min)) was calculated with an analysis program (Softmax, Molecular Devices).
The time to half plasma elimination (t 1/2) was calculated from the slope of Vo vs. time, using the following equation: t 1/2=-1.6 slope.

Description for human alpha-thrombin: Thrombin-catalyzed hydrolysis rates were measured spectrophotometrically using commercial human alpha-thrombin (American Diagnostica), a chromogenic substrate (Spectozyme® TH (H-D-HHT-Ala-Arg-pNA.2AcOH), American Diagnostica) in aqueous buffer (10 mM Tris, 10 mM Hepes, 150 mM NaCl, 0.1% PEG; pH 7.4), and a microplate reader (Molecular Devices). Changes in absorbance at 405 nm were monitored (Softmax, Molecular Devices), upon addition of enzyme, both with and without inhibitor present at 37° C. over 30 minutes. […] Michaelis-Menton kinetics were applied to the initial reaction slopes. […] Michaelis-Menton kinetics were applied to the initial reaction slopes using the program K.Cat (Bio Metallics Inc.).

Regarding `CN(C)c1cccc2c(S(=O)(=O)N[C@@H](CCCNC(=N)N)C(=O)N3CCCCC3CCC(=O)c3nccs3)cccc12` (single isomer, unassigned) [Compound 26], the results for the Ki at human alpha-thrombin and at Bovine type 1 trypsin were 38 µM and 180 µM, respectively.

`CN(C)c1cccc2c(S(=O)(=O)N[C@@H](CCCNC(=N)N)C(=O)N3CCCCC3CCC(=O)c3nccs3)cccc12` (single isomer, unassigned) [Compound 27]: the Ki at human alpha-thrombin is 1.2 µM; at Bovine type 1 trypsin it was 12 µM.

For the compound `CC1CNc2c(cccc2S(=O)(=O)N[C@@H](CCCNC(=N)N)C(=O)N2CC[C@@H](C)C[C@@H]2C(=O)O)C1` (some centres unmarked) [Argatroban, reference compound], the inhibitory constant (Ki) at Bovine type 1 trypsin was 2.9 µM.

Take `CN[C@H](Cc1ccccc1)C(=O)N1CCC[C@H]1C(=O)N[C@H](CCCNC(=N)N)C(=O)c1nc2ccccc2s1` [Compound 2, N-METHYL-D-PHENYLALANYL-N-[4-[(AMINOIMINOMETHYL)AMINO]-1R-[(BENXOTHIAZOL-2- YL)CARBONYL]BUTYL]-L-PROLINAMIDE]: the Ki at human alpha-thrombin was 0.0009 µM.

With `CN[C@H](Cc1ccccc1)C(=O)N1CCC[C@H]1C(=O)N[C@@H](CCCCNC(=N)N)C(=O)c1nc2ccccc2s1` [Compound 11, N-METHYL-D-PHENYLALANYL-N-[5-[(AMINOIMINOMETHYL)AMINO]-1S-[(BENXOTHIAZOL-2- YL)CARBONYL]PENTYL]-L-PROLINAMIDE], the Ki on human alpha-thrombin was 0.42 µM; at Bovine type 1 trypsin it was 6.01 µM.

`CN[C@H](Cc1ccccc1)C(=O)N1CCC[C@H]1C(=O)N[C@@H](CCCNC(=N)N)C(=O)c1nc2ccc(C(=O)OC)cc2s1` [Compound 12, N-METHYL-D-PHENYLALANYL-N-[4-[(AMINOIMINOMETHYL)AMINO]-2S-[(6-METHOXYCARBON YLBENXOTHIAZOL-2-YL)CARBONYL]BUTYL]-L-PROLINAMIDE]: on Bovine type 1 trypsin, the IC50 was 0.003 µM. In series [1], the “t1/2 (time to half plasma elimination)” value is recorded as 43 min.

As to `CN[C@H](Cc1ccccc1)C(=O)N1CCC[C@H]1C(=O)N[C@@H](CCCNC(=N)N)C(=O)c1nc2ccc(C(=O)O)cc2s1` [Compound 13, N-METHYL-D-PHENYLALANYL-N-[4-[(AMINOIMINOMETHYL)AMINO]-1S-[(6-CARBOXYBENXOT HIAZOL-2-YL)CARBONYL]BUTYL]-L-PROLINAMIDE], the IC50 at Bovine type 1 trypsin is 0.002 µM. In series [1], the “t1/2 (time to half plasma elimination)” value was determined as 25 min.

Regarding `CN[C@H](Cc1ccccc1)C(=O)N1CCC[C@H]1C(=O)N[C@@H](CCCNC(=N)N)C(=O)c1nc2ccc(C(N)=O)cc2s1` [Compound 14, N-METHYL-D-PHENYLALANYL-N-[4-[(AMINOIMINOMETHYL)AMINO]-1S-[(6-CARBOXAMIDOBE NXOTHIAZOL-2-YL)CARBONYL]BUTYL]-L-PROLINAMIDE], at Bovine type 1 trypsin, the IC50 was found to be 0.003 µM.

Turning to `CN[C@H](Cc1ccccc1)C(=O)N1CCC[C@H]1C(=O)N[C@@H](CCCNC(=N)N)C(=O)c1nc2ccc(CO)cc2s1` [Compound 15, N-METHYL-D-PHENYLALANYL-N-[4-[(AMINOIMINOMETHYL)AMINO]-1S-[(6-HYDROXYMETHYL BENXOTHIAZOL-2-YL)CARBONYL]BUTYL]-L-PROLINAMIDE], the IC50 at Bovine type 1 trypsin is 0.003 µM. The “t1/2 (time to half plasma elimination)” value in series [1] is recorded as 16 min.

In the case of `CN[C@H](Cc1ccccc1)C(=O)N1CCC[C@H]1C(=O)N[C@H](CCCNC(=N)N)C(=O)c1nc2ccc(CO)cc2s1` [Compound 16, N-METHYL-D-PHENYLALANYL-N-[4-[(AMINOIMINOMETHYL)AMINO]-1R-[(6-HYDROXYMETHYL BENXOTHIAZOL-2-YL)CARBONYL]BUTYL]-L-PROLINAMIDE], the half-maximal inhibitory concentration (IC50) at Bovine type 1 trypsin was found to be 0.238 µM.

Take `CN[C@H](Cc1ccccc1)C(=O)N1CCC[C@H]1C(=O)N[C@@H](CCCNC(=N)N)C(=O)c1nc2ccc(F)cc2s1` [Compound 17, N-METHYL-D-PHENYLALANYL-N-[4-[(AMINOIMINOMETHYL)AMINO]-1S-[(6-FLUOROBENXOTH IAZOL-2-YL)CARBONYL]BUTYL]-L-PROLINAMIDE]: the half-inhibitory concentration (IC50) on Bovine type 1 trypsin turned out to be 0.004 µM. Further, the “t1/2 (time to half plasma elimination)” value in series [1] is listed as 8 min.

For the compound `CN[C@H](Cc1ccccc1)C(=O)N1CCC[C@H]1C(=O)N[C@@H](CCCNC(=N)N)C(=O)c1nc2ccc(F)cc2s1` [Compound 18, N-METHYL-D-PHENYLALANYL-N-[4-[(AMINOIMINOMETHYL)AMINO]-1S-[(6-FLUOROBENXOTH IAZOL-2-YL)CARBONYL]BUTYL]-L-PROLINAMIDE], the IC50 at Bovine type 1 trypsin worked out at 0.13 µM.

Take `CCOC(=O)c1csc(C(=O)[C@H](CCCNC(=N)N)NC(=O)[C@@H]2CCCN2C(=O)[C@@H](Cc2ccccc2)NC)n1` [Compound 20, N-METHYL-D-PHENYLALANYL-N-[4-[(AMINOIMINOMETHYL)AMINO]-1S-[(4-ETHOXYCARBONY LTHIAZOL-2-YL)CARBONYL]BUTYL]-L-PROLINAMIDE]: the concentration for half-maximal inhibition (IC50) on human alpha-thrombin was 0.45 µM; on Bovine type 1 trypsin, 0.058 µM.

As for `CN[C@H](Cc1ccccc1)C(=O)N1CCC[C@H]1C(=O)N[C@@H](CCCNC(=N)N)C(=O)c1nccn1C` [Compound 22], the concentration for half-maximal inhibition (IC50) stood at 1.52 µM at human alpha-thrombin and 18.4 µM at Bovine type 1 trypsin.

For `CN[C@H](Cc1ccccc1)C(=O)N1CCC[C@H]1C(=O)N[C@@H](CCCNC(=N)N)C(=O)c1ccccn1` [Compound 23], the figures for the IC50 on human alpha-thrombin and on Bovine type 1 trypsin were 0.928 µM and 0.238 µM, respectively.

`CN[C@H](Cc1ccccc1)C(=O)N1CCC[C@H]1C(=O)N[C@@H](CCCNC(=N)N)C(=O)c1nc2ccccc2c(=O)[nH]1` [Compound 24]: the IC50 stood at 0.106 µM on human alpha-thrombin and 0.014 µM at Bovine type 1 trypsin.

For `CN[C@H](CC1CCCCC1)C(=O)N1CCC[C@H]1C(=O)N[C@@H](CCCNC(=N)N)C(=O)c1nc2ccccc2s1` [Compound 29, N-METHYL-D-CYOLOHEXYLALANYL-N-[4-[(AMINOIMINOMETHYL)AMINO]-1S-[(BENXOTHIAZO L-2-YL)CARBONYL]BUTYL]-L-PROLINAMIDE], at Bovine type 1 trypsin, the IC50 stood at 0.002 µM. In series [1], the “t1/2 (time to half plasma elimination)” value is 14 min.

Take `N=C(N)NCCC[C@H](NC(=O)C1CCCC1)C(=O)c1nc2ccccc2s1` [Compound 31]: the half-inhibitory concentration (IC50) at Bovine type 1 trypsin worked out at 0.08 µM.

As to `CN[C@H](Cc1ccccc1)C(=O)N1CCC[C@H]1C(=O)N[C@@H](Cc1ccccc1)C(=O)c1nc2ccccc2s1` [Compound 38], the IC50 worked out at 29.9 µM at human alpha-thrombin and 38.7 µM on Bovine type 1 trypsin.

Regarding `CN[C@H](Cc1ccccc1)C(=O)N1CCC[C@H]1C(=O)N(C)[C@@H](CCCNC(=N)N)C(=O)c1nc2ccccc2s1` [Compound 40], the IC50 on human alpha-thrombin was 20.5 µM; at Bovine type 1 trypsin, 7.01 µM.

As to `N=C(N)NCCC[C@H](NC(=O)[C@@H]1CCCN1C(=O)[C@H](N)Cc1ccccc1)C(=O)c1nc2ccccc2s1` [Compound 41, D-PHENYLALANYL-N-[4-[(AMINOIMINOMETHYL)AMINO]-1S-[(BENZOTHIAZOL-2-YL)CARBON YL]BUTYL]-L-PROLINAMIDE], on Bovine type 1 trypsin, the half-inhibitory concentration (IC50) stood at 0.001 µM.

On to `CN[C@H](Cc1ccccc1)C(=O)N1CCCC[C@H]1C(=O)N[C@@H](CCCNC(=N)N)C(=O)c1nc2ccccc2s1` [Compound 42, N-METHYL-D-PHENYLALANYL-N-[4-[(AMINOIMINOMETHYL)AMINO]-1S-[(BENZOTHIAZOL-2- YL)CARBONYL]BUTYL]-2S-PIPERIDINECARBOXAMIDE], for which, at Bovine type 1 trypsin, the IC50 was found to be 0.002 µM.

Regarding `CNC1(C(=O)N2CCC[C@H]2C(=O)N[C@@H](CCCNC(=N)N)C(=O)c2nc3ccccc3s2)CCCCC1` [Compound 45, 1-(N-METHYLAMINO)-1-CYCLOHEXYLCARBONYL-N-[4-[(AMINOIMINOMETHYL)AMINO]-1S-[( BENZOTHIAZOL-2-YL)CARBONYL]BUTYL]-L-PROLINAMIDE], the values for the IC50 on human alpha-thrombin and at Bovine type 1 trypsin were 0.371 µM and 0.009 µM, respectively.

For the compound `N=C(N)NCCC[C@H](NC(=O)[C@@H]1CCCN1C(=O)C(N)(c1ccccc1)c1ccccc1)C(=O)c1nc2ccccc2s1` [Compound 46], the half-maximal inhibitory concentration (IC50) on human alpha-thrombin turned out to be 0.015 µM; at Bovine type 1 trypsin it was 0.003 µM.

As to `C[C@@](N)(Cc1ccccc1)C(=O)N1CCC[C@H]1C(=O)N[C@@H](CCCNC(=N)N)C(=O)c1nc2ccccc2s1` [Compound 47], the half-maximal inhibitory concentration (IC50) on Bovine type 1 trypsin was 0.004 µM.

In the case of `N=C(N)NCCC[C@H](NC(=O)[C@@H]1CCCN1)C(=O)c1nc2ccccc2s1` [Compound 48], the IC50 on Bovine type 1 trypsin was found to be 0.684 µM.

As to `CN[C@H](Cc1ccccc1)C(=O)N1CCC[C@H]1C(=O)N[C@@H](CCCNC(=N)N)C(=O)c1nc2ccc(OC)cc2s1` [Compound 50, N-METHYL-D-PHENYLALANYL-N-[4-[(AMINOIMINOMETHYL)AMINO]-1S-[(6-METHOXYBENXOT HIAZOL-2-YL)CARBONYL]BUTYL]-L-PROLINAMIDE], the Ki at Bovine type 1 trypsin turned out to be 0.002 µM.

On to `CN[C@H](Cc1ccccc1)C(=O)N1CCC[C@H]1C(=O)N[C@@H](CCCNC(=N)N)C(=O)c1nc(C(=O)NCCc2ccccc2)cs1` [Compound 55], for which the figures for the IC50 at human alpha-thrombin and on Bovine type 1 trypsin were 0.83 µM and 0.0086 µM, respectively.

For `CN[C@H](Cc1ccccc1)C(=O)N1CCC[C@H]1C(=O)N[C@H](CCCNC(=N)N)C(=O)c1nc(C(=O)NCCc2ccccc2)cs1` [Compound 56], the figures for the IC50 at human alpha-thrombin and at Bovine type 1 trypsin were 21 µM and 0.0279 µM, respectively.

On to `CN[C@H](Cc1ccccc1)C(=O)N1CCC[C@H]1C(=O)N[C@@H](Cc1ccc(C(=N)N)cc1)C(=O)c1nc2ccccc2s1` [Compound 57], for which the IC50 on human alpha-thrombin was found to be 19.6 µM; at Bovine type 1 trypsin, 0.182 µM.

Take `CN[C@H](Cc1ccccc1)C(=O)N1CCC[C@H]1C(=O)N[C@H](C=O)CCCNC(=N)N` [reference compound]: the Ki on Bovine type 1 trypsin was 0.0039 µM.
